Literature values, collected in patent publication US20210128795A1, “SPIRAL COATED STENT WITH CONTROLLABLE GRADIENT DEGRADATION, PREPARATION METHOD THEREOF AND APPLICATION THEREOF” (Zhuhai Ruizhan Biomaterials Co., Ltd., priority 2018, published 2021).
Where two headings read alike, the source gives them in different places.

Test system: rats

OCCCO [1,3-propanediol]
LD50 value (median lethal dose) (rats per os): 16,080 mg/kg

OCCCCO [1,4-butanediol]
LD50 value (median lethal dose) (rat, in vivo): 1,525 mg/kg
